# Source: patent US20020004458A1, “Methods for inducing production of isoflavone levels in plants using nuclear receptor ligands” (priority 2000, published 2002)
# Columns and labels:
# Type in all cases: in vivo
# [1] = tested on: soybean cotyledons (cultivar Williams); test: Soybean cut cotyledon assay: loading of daidzein conjugate / isoflavone pools; details: for Percent increase in total daidzein conjugate pools compared to a water control (Table 2) / Percent increase in total daidzein conjugate pools compared to a water control (Table 4): 33 uM, average of two experiments
# Method: (§1) The cut cotyledon assay is used to investigate both the ability of the nuclear receptor ligand to activate basal elicitation competency in plants, and to evaluate the ability of a second compound such as the glucan defense elicitor from the fungal pathogen Phytophthora sojae to enhance glyceollin elicitation competency in plants in which the isoflavone pools were “loaded” by the action of the ligand. The level of isoflavones in the cotyledon tissues are measured after the addition of different nuclear receptor ligands to determine the effectiveness of each in inducing the basal production of isoflavones in cotyledon tissues. In such studies, the addition of the nuclear receptor ligand first “primes” the cut cotyledon, i.e., increases the levels of the isoflavone daidzen. That is, the competency for the elicitation of the phytoalexin glyceollin in response to the glucan elicitor from Phytophthora sojae is already partially activated. This means that increases in the isoflavone daidzein, which is the precursor for glyceollin, are usually rapidly shunted into glyceollin when the glucan defense elicitor is added to the system. Thus, the ability of the ligand to enhance glyceollin elicitation competency by “loading” the isoflavone pools can also be measured.
# (§2) Cotyledons from 7-8 day old soybean seedlings are removed from the plant and cut on the lower surface to expose subepidermal tissues. A 30 p,L drop of test compound (elicitor and/or loader) is placed on the cut surface. Ten cotyledons are used per treatment and arranged in a petri plate containing a wet filter paper to keep the cotyledons moist. After incubation at room temperature at approximately 200 p.Einsteins of light for 48 hr the cotyledon tissues are harvested for analysis. Tissues for analysis are harvested by cutting a vertical column of cells from the cotyledon using a number 1 cork borer. The column of cells is then subsampled by cutting slices of cells progressively away from the original cut surface. The first section is approximately 4 cell layers thick and the second two are approximately 8 cell layers thick. These allow the examination of proximal and distal effects of treatments, respectively. Tissues are analyzed by HPLC as noted below. Full details of this assay can be found in the publication: Graham, T. L., and Graham, M. Y. 1991. Glyceollin Elicitors Induce Major But Distinctly Different Shifts in Isoflavonoid Metabolism in Local and Distal Cell Populations. Molecular Plant Microbe Interactions 4:60-68, which is specifically incorporated herein by reference.
# (§3) High performance liquid chromatography (HPLC) is the . method of choice for determining the levels of isoflavone defense compounds in soybean. With a single HPLC analysis, one gets a complete and quantitative profile of up to 50 or more aromatic compounds, including all the isoflavones and their conjugates and the phytoalexins, including glyceollin. As little as 20 mg of plant tissue is needed and the method can be readily applied to cotyledon, leaf or any soybean tissue. This analytical method allows us to determine the nmoles/gm of each metabolite, which can then readily be processed to compare the percent increase or decrease of a given metabolite in comparison to either water or glucan treated control tissues. Routinely, tissues are extracted in 80% ethanol and subjected to water/acetonitrile gradient elution from a C18 reverse phase HPLC column. Full details of this procedure can be found in the publication: Graham, T. L. 1991. A Rapid, High Resolution High Performance Liquid Chromatography Profiling Procedure for Plant and Microbial Aromatic Secondary Metabolites. Plant Physiology 95:584-593, which is specifically incorporated herein by reference.
# (§4) Cotyledons (10 per treatment) from 7 day old Williams variety soybean were treated with a formulation comprising estrogens, estrogen agonists, and peroxisome proliferators. […]
# [2] = tested on: soybean cotyledons (cultivar Williams); test: Soybean cut cotyledon assay: potentiation of glyceollin (phytoalexin) elicitation by glucan elicitor; details: 33 uM, applied immediately before glucan elicitor and 10 uM orthovanadate, 48 hr, average of two experiments
# Method: as §1, §2, §3, §4
# [3] = tested on: soybean cotyledons (cultivar Williams); test: Soybean snapped cotyledon assay: loading of isoflavone (daidzein) conjugate pools
# Method: The snapped cotyledon assay is a minimal wound assay used to investigate the effects of test compounds in a non-primed background. The assay is performed by snapping cotyledons in two and placing the petiole side down in 0.5% water agar. Ten snapped cotyledons are used per treatment, and the subepidermal cells exposed by snapping are treated with glucan defense elicitor and/or the effector being examined. The cotyledons are incubated in the light for 48 hr as in the cut cotyledon assay. Both proximal (first cell layer) and distal (second and third cell layers) are harvested for analysis by HPLC (see below). Full details of this assay can be found in the publication: Graham, T. L. and Graham, M. Y. 1996. Signaling in soybean phenylpropanoid responses: dissection of primary, secondary and conditioning-effects of light, wounding and elicitor treatments. Plant Physiol. 110:1123-1133, which is specifically incorporated herein by reference.
# The snapped cotyledon assay is “naive”. That is, it is not pre-disposed or primed for competency for the elicitation of phytoalexin glyceollin in response to the glucan elicitor. Thus, treatment with the glucan elicitor induces the formation of the isoflavones daidzein and genistein, but very little glyceollin. This is an excellent assay to study the effects of a chemical treatment on isoflavone metabolism by itself or in combination with the glucan. In the absence of the glucan, it gives an excellent picture of the effects of the compound alone on isoflavone metabolism. In the presence of the glucan, it tells us if the test compound can induce elicitation competency for the glyceollin response to the glucan.
# as §3
# Cotyledons (10 per treatment) from 7 day old Williams variety soybean were treated with a formulation comprising estrogens, estrogen agonists, and peroxisome proliferators. Each NRL was dissolved either in water or first in isopropanol to give a saturated solution followed by rapid dilution in water. […] NRLs were tested over a concentration range of about 10 uM to 1 mM, using serial 3 fold dilutions from 1 mM. NRLs were tested both alone and in the presence of 30 ug/ml of the glucan elicitor from the fungal pathogen Phytophthora sojae. Concentrations of the NRL and glucan noted here are final concentrations on the treated cotyledon.
# The exposed surface of each snapped cotyledon was treated with 7 μL of the NRL followed by 7 μL of the glucan or water. Cotyledons were incubated in constant light (200 t;,Einsetins) for 48 hr. At 48 hr, a thin (translucent) section was harvested from the treated cotyledon surface. Sections from the 10 cotyledons for each treatment were pooled and extracted in 80% ethanol (400 μL for each 50 mG fresh weight). The extract was then subjected to HPLC as described above. […]
# soybean primary leaves = test: Soybean leaf infiltration: isoflavone increases after ergosterol treatment; details: 48 hours, over control
# Method: as §3
# True leaves of soybean plants are also treated as described above in Example 1. For tests on true leaves of soybean or other plants, two methods are used. In the laboratory a small spot on the leaves is vacuum filtrated using a filter disc platform hooked to a water aspirator. The leaf is placed on the filter disc platform and mild suction applied. A drop of the glucan elicitor and the nuclear receptor ligand formulation is then placed on the exposed surface of the leaf and allowed to infiltrate the tissue through the leaf stomatal pores. For the greenhouse or field, the nuclear receptor ligand is added to a surfactant to emulsify and disperse the ligand. In all of these assays, the tissues are again analyzed by HPLC as described above.
# Moreover, the isoflavone formononetin is normally found only as a trace metabolite in soybean tissues. It is commonly found in chickpea. Treatment of soybean leaves with a nuclear receptor ligand, however, caused very significant accumulations of daidzein and formononetin aglycones and genistein conjugates. […] Ergosterol was directly infiltrated into the primary leaves, which were analyzed after 48 hours.
# [4] = tested on: cotyledons of lima bean, mung bean, green bean, peanuts, and chickpeas; test: Cut cotyledon assay on legumes other than soybean: increase in isoflavones; details: ergosterol at 100 p,M; range in each plant species; isoflavones identified by ultraviolet spectra
# [5] = cut cotyledon assay, Williams cotyledons, concentrations 50-500 p,M
# [6] = 33 uM, average of two experiments
# [7] = ergosterol 1 micromolar infiltrated into primary leaves
# [8] = ergosterol 10 micromolar infiltrated into primary leaves
# [9] = ergosterol 100 micromolar infiltrated into primary leaves
Structure (SMILES),"Range of increase of isoflavones over the concentration range [1, 5]",Percent increase in total daidzein conjugate pools compared to a water control (Table 2) ([1]; cut cotyledon assay) [%],Percent increase in total daidzein conjugate pools compared to a water control (Table 4) ([1]; cut cotyledon assay) [%],Percent increase in glyceollin elicitation compared to a glucan elicitor control [2] [%],"Percent increase in daidzein conjugate pools compared to a water control (Table 3) [3, 6]",other results
CC(=O)[C@H]1CC[C@H]2[C@@H]3CC=C4C[C@@H](O)CC[C@]4(C)[C@H]3CC[C@]12C [5-pregnenolone],5-20%,,,,,
"C[C@]12CC[C@@H]3c4ccc(O)cc4CC[C@H]3[C@@H]1CC[C@@H]2O [Beta-Estradiol, 17-beta-estradiol]",,64,64,205,+64%,
"CC(C)(Oc1ccccc1Cl)C(=O)O [CPMPA, 2-(o-chlorophenoxy)-2-methylpropionic acid]",,,,,+42%,
"CC(C)(Oc1ccc(C2CC2(Cl)Cl)cc1)C(=O)O (centres unmarked) [Ciprofibrate, ciprofibrate]",,52,52,199,+52%,
O=c1oc2cc(O)ccc2c2oc3cc(O)ccc3c12 [Coumestrol],,54,54,226,,
"C/C=C(/C(=C/C)c1ccc(O)cc1)c1ccc(O)cc1 [Dienestrol, dienestrol]",,28,28,75,+28%,
"CC/C(=C(/CC)c1ccc(O)cc1)c1ccc(O)cc1 [Diethylstilbestrol, diethylstilbestrol]",,36,38,86,,
"CC(C)[C@@H](C)/C=C/[C@@H](C)[C@H]1CC[C@H]2C3=CC=C4C[C@@H](O)CC[C@]4(C)[C@H]3CC[C@]12C [Ergosterol, ergosterol]",,60,60,260,+60%,Increase in Daidzein Aglycone (soybean primary leaves; [7]): 5X; Increase in Formononetin Aglycone (soybean primary leaves; [7]): 24X; Increase in Genistein Conjugates (soybean primary leaves; [7]): 2X; Increase in Daidzein Aglycone (soybean primary leaves; [8]): 3X; Increase in Formononetin Aglycone (soybean primary leaves; [8]): 27X; Increase in Genistein Conjugates (soybean primary leaves; [8]): 1.1X; Increase in Daidzein Aglycone (soybean primary leaves; [9]): 2.4X; Increase in Formononetin Aglycone (soybean primary leaves; [9]): 4X; Increase in Genistein Conjugates (soybean primary leaves; [9]): None; Increases in isoflavones [4]: 2-60 fold
"C[C@]12CC[C@@H]3c4ccc(O)cc4CC[C@H]3[C@@H]1C[C@@H](O)[C@@H]2O [Estriol, estriol]",,45,45,177,+45%,
"O=c1c(-c2ccc(O)cc2)coc2cc(O)cc(O)c12 [Genistein, genistein]",,,,,,Percent increase in daidzein conjugate pools compared to a water control (Table 3) ([3]; genistein applied as smaller doses on an hourly basis for 8 hours): +54%
"CC(=O)[C@H]1CC[C@H]2[C@@H]3CCC4=CC(=O)CC[C@]4(C)[C@H]3CC[C@]12C [Progesterone, progesterone]",20-60%,,,,,
"C[C@H]1CCCC(=O)CCC/C=C/c2cc(O)cc(O)c2C(=O)O1 [Zearalenone, zearalenone]",,58,58,242,,
C[C@]12CC[C@@H](O)C[C@@H]1CC[C@@H]1[C@@H]2CC[C@]2(C)C(=O)CC[C@@H]12 [androsterone],,,,,,Range of increase of isoflavones over the concentration range ([1]; in vivo): 30-40%
C[C@]12CCC(=O)C=C1CC[C@@H]1[C@@H]2C(=O)C[C@@]2(C)[C@H]1CC[C@]2(O)C(=O)CO [cortisone],30-100%,,,,,
C[C@@H]1C[C@H]2[C@@H]3CCC4=CC(=O)C=C[C@]4(C)[C@@]3(F)[C@@H](O)C[C@]2(C)[C@@]1(O)C(=O)CO [dexamethasone],0-10%,,,,,
C[C@]12CCC(=O)C=C1CC[C@@H]1[C@@H]2[C@@H](O)C[C@@]2(C)[C@H]1CC[C@]2(O)C(=O)CO [hydrocortisone],25-50%,,,,,
